Data on 14 compounds can be found in ChEMBL document CHEMBL1201862, “PubChem BioAssay data set” (2004).

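Test compounds were applied to cells in 96-well plates for 48 hours at 5 doses. The concentration for 50% growth inhibition is given as GI50.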 Calls of active or inactive are those of the source. Rule as the data show it: active = GI50 up to about 1.1 µM and inactive = higher.

Some test systems named below: A549; CCRF-CEM; HCT-15; HOP-62; HT-29; IGROV-1; K562; OVCAR-4; SF-268; SF-539; SK-OV-3; SW-620; UACC-62; HCC 2998; HL-60; Malme-3M.
What all share (test): NCI-60 cell line screen, 48 h

Consider `CC(=O)OC1COC(N2CCc3cc([N+](=O)[O-])ccc32)C(OC(C)=O)C1OC(C)=O` (configuration not stated), for which the GI50 in the assay with A549 is > 100 µM (inactive); in the assay on CCRF-CEM, > 100 µM (inactive); in the assay on HCT-15, greater than 100 µM; in the assay on HOP-62, > 100 µM (inactive); with HT-29 it was > 100 µM (inactive); with IGROV-1, > 100 µM (inactive). The GI50 in the assay with K562, in the assay with OVCAR-4, with SF-268, in the assay with SF-539, with SK-OV-3 and in the assay with SW-620 was > 100 µM (inactive) throughout. The GI50 with UACC-62 is > 100 µM (inactive).

Consider `CC(=O)OC1(C#N)CC2OC1C1C2N1C(=O)c1ccccc1` (configuration not stated), for which the GI50 with A549 was > 100 µM (inactive); in the assay on CCRF-CEM, > 100 µM (inactive); with HCC 2998, > 100 µM (inactive); in the assay with HCT-15 it was greater than 100 µM; in the assay with HL-60, > 100 µM (inactive); with HOP-62, > 100 µM (inactive). Moreover, the GI50 in the assay with IGROV-1, in the assay with K562, with Malme-3M, in the assay on OVCAR-4, in the assay on SF-268 and in the assay with SF-539 was > 100 µM (inactive) throughout. The GI50 in the assay on SK-OV-3, with SW-620 and in the assay on UACC-62 was > 100 µM (inactive) each time.

Turning to `CC(C(=O)N1C(=O)N(C(=O)C(C)C(O)c2ccccc2)C2CCCCC21)C(O)c1ccccc1` (configuration not stated), the GI50 with A549 is 44.3 µM (inactive); with CCRF-CEM, 44.2 µM (inactive); in the assay with HCT-15, greater than 100 µM; in the assay with HL-60 it was 27.7 µM (inactive); in the assay with HOP-62 it was > 100 µM (inactive); with HT-29 it was > 10 µM (inactive). Besides, the GI50 in the assay with IGROV-1 is > 100 µM (inactive); in the assay on K562 it was > 10 µM (inactive); with Malme-3M, 57.4 µM (inactive); with OVCAR-4 it was 57.4 µM (inactive); with SF-268, > 100 µM (inactive); in the assay on SW-620 it was > 100 µM (inactive). The GI50 in the assay on UACC-62 was > 100 µM (inactive).

As for `Cn1ncc2c(c1=O)Nc1ccccc1S2(=O)=O`, the GI50 was > 100 µM (inactive) with A549; 61.1 µM (inactive) in the assay on CCRF-CEM; > 100 µM (inactive) in the assay with HCC 2998; greater than 100 µM in the assay with HCT-15; > 100 µM (inactive) in the assay on HOP-62; > 100 µM (inactive) in the assay on HT-29. The GI50 with IGROV-1 is > 100 µM (inactive); in the assay with K562 it was > 100 µM (inactive); with Malme-3M, > 100 µM (inactive); in the assay on OVCAR-4, > 100 µM (inactive); in the assay on SF-268, > 100 µM (inactive); with SF-539 it was 21.6 µM (inactive). In addition, the GI50 with SK-OV-3 was > 100 µM (inactive); in the assay with SW-620, 10.8 µM (inactive); in the assay with UACC-62 it was > 100 µM (inactive).

In the case of `O=C1C(c2ccc(Br)cc2)=[N+]([O-])c2ccccc21`, the GI50 in the assay with A549 was 20.9 µM (inactive); in the assay on CCRF-CEM, 4.12 µM (inactive); in the assay with HCC 2998, 13.5 µM (inactive); in the assay with HCT-15 it was 5.97 µM; in the assay with HL-60 it was 2.14 µM (inactive); with HOP-62, 27 µM (inactive). In addition, the GI50 with HT-29 was 21.6 µM (inactive); with IGROV-1, 17.4 µM (inactive); in the assay on K562, 10.2 µM (inactive); with Malme-3M it was 18.4 µM (inactive); in the assay on SF-268, 17.6 µM (inactive); in the assay with SF-539, 20.5 µM (inactive). For the same compound, the GI50 in the assay on SK-OV-3 was 55.1 µM (inactive); in the assay with SW-620 it was 26.1 µM (inactive); with UACC-62 it was 16 µM (inactive).

On to `Cc1ccc(C)c(NC(=O)C(=O)C2C(=O)N(c3ccccc3)N=C2N)c1` (configuration not stated), for which the GI50 in the assay with A549 was > 100 µM (inactive); in the assay on CCRF-CEM it was > 100 µM (inactive); in the assay on HCC 2998, > 100 µM (inactive); in the assay with HCT-15, greater than 100 µM; with HL-60, 31.7 µM (inactive); with HOP-62, > 100 µM (inactive). The GI50 in the assay on HT-29 is > 100 µM (inactive); in the assay with IGROV-1, > 100 µM (inactive); with K562, 90.2 µM (inactive); with Malme-3M, > 100 µM (inactive); in the assay on OVCAR-4, > 100 µM (inactive); with SF-268, > 100 µM (inactive). The GI50 in the assay on SF-539, in the assay with SW-620 and with UACC-62 was > 100 µM (inactive) each time.

Take `CC(=O)/C=C1/c2ccccc2N(C(C)=O)C1O` (configuration not stated): the GI50 in the assay with A549 is > 100 µM (inactive); in the assay with CCRF-CEM it was > 100 µM (inactive); with HCC 2998, > 100 µM (inactive); with HCT-15, greater than 100 µM; with HL-60 it was > 100 µM (inactive); in the assay with HOP-62, > 100 µM (inactive). Besides, the GI50 with HT-29, with IGROV-1, in the assay on K562, with OVCAR-4, in the assay with SF-539 and with SK-OV-3 was > 100 µM (inactive) in each case. Besides, the GI50 with SW-620 and with UACC-62 was > 100 µM (inactive) each time.

Regarding `O=C1NC(=S)NC(=O)C1=Cc1cc2c(cc1[N+](=O)[O-])OCO2`, the GI50 is > 100 µM (inactive) in the assay on A549; 55.3 µM (inactive) in the assay with CCRF-CEM; > 100 µM (inactive) in the assay with HCC 2998; 39.7 µM with HCT-15; 35.8 µM (inactive) with HL-60; > 100 µM (inactive) in the assay with HOP-62. In addition, the GI50 was > 100 µM (inactive) in the assay with IGROV-1; 41.8 µM (inactive) with K562; > 100 µM (inactive) in the assay with Malme-3M; > 100 µM (inactive) in the assay on OVCAR-4; > 100 µM (inactive) in the assay with SF-268; 83.2 µM (inactive) with SF-539. Besides, the GI50 is > 100 µM (inactive) in the assay on SK-OV-3, 39.1 µM (inactive) in the assay on SW-620 and > 100 µM (inactive) with UACC-62.

`Cc1cc(C)c(N)c(C)c1N`: the GI50 in the assay with A549 was > 100 µM (inactive); with CCRF-CEM it was > 100 µM (inactive); in the assay with HCC 2998 it was > 100 µM (inactive); with HCT-15 it was greater than 100 µM; in the assay on HL-60, > 100 µM (inactive); in the assay with HOP-62 it was > 100 µM (inactive). In addition, the GI50 in the assay with IGROV-1, in the assay on K562, in the assay on Malme-3M, in the assay with SF-268, in the assay with SF-539 and in the assay on SK-OV-3 was > 100 µM (inactive) each time. In addition, the GI50 with SW-620 and with UACC-62 was > 100 µM (inactive) in each case.

Consider `C=CCN(N=O)C(=O)NCCCCC(NC(C)=O)C(=O)NCc1ccccc1` (configuration not stated), for which the GI50 in the assay with A549 was > 100 µM (inactive); in the assay with CCRF-CEM it was > 100 µM (inactive); with HCT-15 it was greater than 100 µM; with HL-60, > 100 µM (inactive); in the assay on HOP-62 it was > 100 µM (inactive); in the assay on HT-29, > 100 µM (inactive). Moreover, the GI50 in the assay on IGROV-1, in the assay on K562, in the assay on Malme-3M, in the assay with OVCAR-4, in the assay with SF-268 and in the assay with SF-539 was > 100 µM (inactive) each time. The GI50 in the assay on SK-OV-3, in the assay with SW-620 and in the assay on UACC-62 was > 100 µM (inactive) in each case.

In the case of `O=C1CCC(=O)N1Sc1ccccc1`, the GI50 with A549 is > 100 µM (inactive); in the assay on CCRF-CEM it was 42.4 µM (inactive); with HCT-15 it was greater than 100 µM; in the assay on HL-60, > 100 µM (inactive); with HOP-62 it was > 100 µM (inactive); in the assay on IGROV-1 it was > 100 µM (inactive). Also, the GI50 in the assay on K562, with OVCAR-4, with SF-268, with SF-539, with SK-OV-3 and with SW-620 was > 100 µM (inactive) each time. The GI50 in the assay on UACC-62 was > 100 µM (inactive).

Regarding `COc1ccc(C2=C(Cl)c3cc(OC)c(OC)cc3C2OC)cc1OC` (configuration not stated), the GI50 in the assay with A549 was > 100 µM (inactive); in the assay on CCRF-CEM it was 50.2 µM (inactive); in the assay with HCC 2998, > 100 µM (inactive); with HCT-15, 56.9 µM; with HL-60, 8.11 µM (inactive); with HOP-62, > 100 µM (inactive). For the same compound, the GI50 with HT-29 is > 100 µM (inactive); in the assay on IGROV-1 it was > 100 µM (inactive); in the assay on K562, 5.74 µM (inactive); with Malme-3M, > 100 µM (inactive); in the assay with OVCAR-4 it was > 100 µM (inactive); in the assay on SF-268 it was > 100 µM (inactive). The GI50 in the assay on SF-539 was 65.2 µM (inactive); with SW-620, 19.5 µM (inactive); in the assay on UACC-62, > 100 µM (inactive).

As for `Nc1nc2c(ncn2C2OC(CO)C(O)C2N)c(=O)[nH]1` (configuration not stated), the GI50 is 97.1 µM (inactive) in the assay on A549; 40.1 µM (inactive) with CCRF-CEM; > 100 µM (inactive) in the assay on HCC 2998; greater than 100 µM in the assay on HCT-15; 97.9 µM (inactive) in the assay on HL-60; > 100 µM (inactive) in the assay on HOP-62. The GI50 in the assay on HT-29 is > 100 µM (inactive); with IGROV-1 it was > 100 µM (inactive); with K562 it was 86.9 µM (inactive); in the assay on Malme-3M, > 100 µM (inactive); with SF-268, > 100 µM (inactive); in the assay with SF-539, > 100 µM (inactive). Also, the GI50 in the assay on SK-OV-3, with SW-620 and in the assay on UACC-62 was > 100 µM (inactive) in each case.

In the case of `c1ccc2c(c1)n1nnnc1c1nnnn21`, the GI50 was > 100 µM (inactive) with A549; > 100 µM (inactive) with CCRF-CEM; > 100 µM (inactive) in the assay with HCC 2998; greater than 100 µM in the assay on HCT-15; > 100 µM (inactive) in the assay with HOP-62; > 100 µM (inactive) in the assay with HT-29. Besides, the GI50 in the assay with IGROV-1 is > 100 µM (inactive); with K562 it was > 100 µM (inactive); in the assay on Malme-3M it was > 100 µM (inactive); in the assay on OVCAR-4, 32.4 µM (inactive); in the assay with SF-268, 85.1 µM (inactive); in the assay on SF-539, 78.9 µM (inactive). The GI50 with SK-OV-3, in the assay with SW-620 and in the assay on UACC-62 was > 100 µM (inactive) in each case.
